Data published in ChEMBL document CHEMBL1158913, “Peroxy Aliphatic Esters from the Sponge Plakortis lita” (1990).

System: P388
Test: Cytotoxicity against mouse P388 cells
Type: functional
Settings: read-out: ED50 (the source's name)

SMILES | EC50
CCCCCCCCCCCCCCCC[C@@]1(OC)C=C[C@@H](CC(=O)OC)OO1 [CHONDRILLIN] | > 10 µg/mL
C/C=C/C=C/CCCCCCCCCCC[C@]1(OC)C=C[C@H](CC(=O)OC)OO1 | > 10 µg/mL
